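The compound was tested at five concentrations on cells cultured in 96-well plates, with a 48-hour exposure period. Here, GI50 denotes the concentration required for 50% inhibition of growth.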 Activity calls are given as the source filed them. Rule as the data show it: active = GI50 up to about 1.1 µM and inactive = higher.
What was measured:
Assay in all cases: NCI-60 cell line screen, 48 h
786-0 = tested on: 786-0
A498 = tested on: A498
A549 = tested on: A549
ACHN = tested on: ACHN
BT-549 = tested on: BT-549
CAKI-1 = tested on: CAKI-1
CCRF-CEM = tested on: CCRF-CEM
COLO 205 = tested on: COLO 205
DU-145 = tested on: DU-145
EKVX = tested on: EKVX
HCT-116 = tested on: HCT-116
HCT-15 = tested on: HCT-15
HL-60 = tested on: HL-60
HOP-62 = tested on: HOP-62
HOP-92 = tested on: HOP-92
HT-29 = tested on: HT-29
Hs-578T = tested on: Hs-578T
IGROV-1 = tested on: IGROV-1
K562 = tested on: K562
KM12 = tested on: KM12
M14 = tested on: M14
MCF7 = tested on: MCF7
MDA-MB-231 = tested on: MDA-MB-231
MDA-MB-435 = tested on: MDA-MB-435
MDA-N = tested on: MDA-N
MOLT-4 = tested on: MOLT-4
Malme-3M = tested on: Malme-3M
NCI-H226 = tested on: NCI-H226
NCI-H23 = tested on: NCI-H23
NCI-H460 = tested on: NCI-H460
NCI-H522 = tested on: NCI-H522
NCI/ADR-RES = tested on: NCI/ADR-RES
OVCAR-3 = tested on: OVCAR-3
OVCAR-4 = tested on: OVCAR-4
OVCAR-5 = tested on: OVCAR-5
OVCAR-8 = tested on: OVCAR-8
PC-3 = tested on: PC-3
RPMI-8226 = tested on: RPMI-8226
RXF 393 = tested on: RXF 393
SF-268 = tested on: SF-268
SF-295 = tested on: SF-295
SF-539 = tested on: SF-539
SK-MEL-28 = tested on: SK-MEL-28
SK-MEL-2 = tested on: SK-MEL-2
SK-MEL-5 = tested on: SK-MEL-5
SK-OV-3 = tested on: SK-OV-3
SN12C = tested on: SN12C
SNB-19 = tested on: SNB-19
SNB-75 = tested on: SNB-75
SW-620 = tested on: SW-620
T47D = tested on: T47D
U-251 = tested on: U-251
UACC-257 = tested on: UACC-257
UACC-62 = tested on: UACC-62
UO-31 = tested on: UO-31
HCC 2998 = tested on: HCC 2998
LOX IMVI = tested on: LOX IMVI
TK-10 = tested on: TK-10

CC1OC(OC2C(O[C@@H]3C[C@@H]4CC[C@@H]5[C@H](CC[C@]6(C)[C@@H]7[C@H](C[C@@H]56)O[C@]5(CC[C@@H](C)CO5)[C@H]7C)[C@@]4(C)C[C@H]3O)OC(CO)C(OC3OC(CO)C(O)C(O)C3O)C2O)C(O)C(O)C1O (some centres not stated)
GI50 (786-0): 1.73 µM (inactive)
GI50 (A498): 1.71 µM (inactive)
GI50 (A549): 1.57 µM (inactive)
GI50 (ACHN): 1.79 µM (inactive)
GI50 (BT-549): 2.23 µM (inactive)
GI50 (CAKI-1): 1.78 µM (inactive)
GI50 (CCRF-CEM): 1.92 µM (inactive)
GI50 (COLO 205): 1.74 µM (inactive)
GI50 (DU-145): 2.08 µM (inactive)
GI50 (EKVX): 1.51 µM (inactive)
GI50 (HCT-116): 3.78 µM (inactive)
GI50 (HCT-15): 2.17 µM
GI50 (HL-60): 1.91 µM (inactive)
GI50 (HOP-62): 1.83 µM (inactive)
GI50 (HOP-92): 2.51 µM (inactive)
GI50 (HT-29): 1.53 µM (inactive)
GI50 (Hs-578T): 2.02 µM (inactive)
GI50 (IGROV-1): 1.14 µM (inactive)
GI50 (K562): 5.92 µM (inactive)
GI50 (KM12): 1.98 µM (inactive)
GI50 (M14): 1.69 µM (inactive)
GI50 (MCF7): 1.85 µM (inactive)
GI50 (MDA-MB-231): 1.8 µM (inactive)
GI50 (MDA-MB-435): 1.78 µM (inactive)
GI50 (MDA-N): 1.91 µM (inactive)
GI50 (MOLT-4): 1.96 µM (inactive)
GI50 (Malme-3M): 1.29 µM (inactive)
GI50 (NCI-H226): 1.44 µM (inactive)
GI50 (NCI-H23): 2.03 µM (inactive)
GI50 (NCI-H460): 1.76 µM (inactive)
GI50 (NCI-H522): 1.1 µM (active)
GI50 (NCI/ADR-RES): 1.67 µM (inactive)
GI50 (OVCAR-3): 1.65 µM (inactive)
GI50 (OVCAR-4): 2.06 µM (inactive)
GI50 (OVCAR-5): 1.59 µM (inactive)
GI50 (OVCAR-8): 1.52 µM (inactive)
GI50 (PC-3): 1.52 µM (inactive)
GI50 (RPMI-8226): 3.17 µM (inactive)
GI50 (RXF 393): 2.01 µM (inactive)
GI50 (SF-268): 1.84 µM (inactive)
GI50 (SF-295): 1.56 µM (inactive)
GI50 (SF-539): 1.77 µM (inactive)
GI50 (SK-MEL-28): 1.75 µM (inactive)
GI50 (SK-MEL-2): 1.74 µM (inactive)
GI50 (SK-MEL-5): 1.55 µM (inactive)
GI50 (SK-OV-3): 1.69 µM (inactive)
GI50 (SN12C): 1.68 µM (inactive)
GI50 (SNB-19): 1.79 µM (inactive)
GI50 (SNB-75): 2.25 µM (inactive)
GI50 (SW-620): 1.67 µM (inactive)
GI50 (T47D): 3.66 µM (inactive)
GI50 (U-251): 1.81 µM (inactive)
GI50 (UACC-257): 1.87 µM (inactive)
GI50 (UACC-62): 1.92 µM (inactive)
GI50 (UO-31): 2.12 µM (inactive)

O=C(O)C1NCCc2c1[nH]c1ccccc21 (configuration not stated)
GI50 (BT-549): > 10 µM (inactive)
GI50 (DU-145): > 10 µM (inactive)
GI50 (HOP-62): > 10 µM (inactive)
GI50 (Hs-578T): > 10 µM (inactive)
GI50 (MCF7): > 10 µM (inactive)
GI50 (MDA-MB-231): > 10 µM (inactive)
GI50 (MDA-MB-435): > 10 µM (inactive)
GI50 (MDA-N): > 10 µM (inactive)
GI50 (NCI/ADR-RES): > 10 µM (inactive)
GI50 (PC-3): > 10 µM (inactive)
GI50 (RPMI-8226): > 10 µM (inactive)
GI50 (RXF 393): > 10 µM (inactive)
GI50 (T47D): > 10 µM (inactive)

CC1OC(OC2C(O[C@H]3CC[C@@]4(C)C(=CC[C@H]5[C@@H]6C[C@@H]7O[C@]8(CC[C@@H](CO)CO8)[C@@H](C)[C@@H]7[C@@]6(C)CC[C@@H]54)C3)OC(CO)C(O)C2OC2OC(CO)C(O)C(O)C2O)C(O)C(O)C1O (some centres not stated)
GI50 (786-0): 1.9 µM (inactive)
GI50 (A498): 2.01 µM (inactive)
GI50 (A549): 2.07 µM (inactive)
GI50 (ACHN): 1.73 µM (inactive)
GI50 (BT-549): > 10 µM (inactive)
GI50 (CAKI-1): 1.95 µM (inactive)
GI50 (COLO 205): 1.88 µM (inactive)
GI50 (DU-145): 1.84 µM (inactive)
GI50 (EKVX): 2.07 µM (inactive)
GI50 (HCC 2998): 1.62 µM (inactive)
GI50 (HCT-116): 1.65 µM (inactive)
GI50 (HCT-15): 1.91 µM
GI50 (HL-60): 1.44 µM (inactive)
GI50 (HOP-62): 1.72 µM (inactive)
GI50 (HOP-92): 1.76 µM (inactive)
GI50 (HT-29): 2.1 µM (inactive)
GI50 (Hs-578T): 2.91 µM (inactive)
GI50 (IGROV-1): 1.95 µM (inactive)
GI50 (K562): 1.71 µM (inactive)
GI50 (KM12): 1.91 µM (inactive)
GI50 (LOX IMVI): 1.85 µM (inactive)
GI50 (M14): 2.04 µM (inactive)
GI50 (MCF7): 1.77 µM (inactive)
GI50 (MDA-MB-231): 1.79 µM (inactive)
GI50 (MDA-MB-435): 2.01 µM (inactive)
GI50 (MDA-N): 1.68 µM (inactive)
GI50 (Malme-3M): 1.81 µM (inactive)
GI50 (NCI-H226): 1.97 µM (inactive)
GI50 (NCI-H23): 2.01 µM (inactive)
GI50 (NCI-H460): 1.78 µM (inactive)
GI50 (NCI-H522): 1.72 µM (inactive)
GI50 (NCI/ADR-RES): 1.97 µM (inactive)
GI50 (OVCAR-4): 1.91 µM (inactive)
GI50 (OVCAR-5): 2.22 µM (inactive)
GI50 (OVCAR-8): 1.78 µM (inactive)
GI50 (PC-3): 1.9 µM (inactive)
GI50 (RPMI-8226): 1.94 µM (inactive)
GI50 (RXF 393): 1.53 µM (inactive)
GI50 (SF-268): 1.85 µM (inactive)
GI50 (SF-539): 1.6 µM (inactive)
GI50 (SK-MEL-28): 1.95 µM (inactive)
GI50 (SK-MEL-2): 2.03 µM (inactive)
GI50 (SK-MEL-5): 1.64 µM (inactive)
GI50 (SK-OV-3): 2.62 µM (inactive)
GI50 (SN12C): 1.8 µM (inactive)
GI50 (SNB-19): 2.02 µM (inactive)
GI50 (SNB-75): 1.58 µM (inactive)
GI50 (SW-620): 1.86 µM (inactive)
GI50 (T47D): 1.87 µM (inactive)
GI50 (TK-10): 1.71 µM (inactive)
GI50 (U-251): 1.79 µM (inactive)
GI50 (UACC-257): 1.77 µM (inactive)
GI50 (UACC-62): 1.83 µM (inactive)
GI50 (UO-31): 2.52 µM (inactive)
